According to paper PMC9820316, “Novel Arylpiperazine Derivatives of Salicylamide with α1-Adrenolytic Properties Showed Antiarrhythmic and Hypotensive Properties in Rats” (International Journal of Molecular Sciences, 2022):
Marks after values point to notes of the source that are not given here.

What was measured:
normotensive rats = test: Influence on blood pressure in the normotensive rats; assay type: in vivo, rat; conditions: for DBP—diastolic blood pressure / SBP—systolic blood pressure: mean ± SD
Method in brief: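 Anaesthetised (thiopental 75 mg/kg ip) normotensive Wistar rats with right carotid artery cannulated for direct pressure recording. Compounds given iv after 15 min stabilisation. Systolic and diastolic blood pressure were monitored.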

α2-adrenergic receptors = test: α2-adrenoceptor radioligand binding assay ([3H]-clonidine, rat cortex); conditions: rat cortex tissue, mean ± SEM, n.a. = did not bind at 10^−5 M
Method in brief: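 Rat cerebral cortex membranes in 50 mM Tris-HCl pH 7.6, with 7–8 compound concentrations in duplicate. Nonspecific binding defined by 10 μM phentolamine for [3H]-prazosin (α1) or 10 μM clonidine for [3H]-clonidine (α2). Filtration and scintillation counting; Ki calculated.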

[1] = tested on: aconitine-induced arrhythmia model in rats; test: Prophylactic antiarrhythmic activity in aconitine-induced arrhythmia; assay type: in vivo, rat; conditions: 5 mg/kg iv 15 min before aconitine 20 μg/kg; number of animals with event
[2] = tested on: adrenaline-induced arrhythmia model in rats; test: Prophylactic antiarrhythmic activity in adrenaline-induced arrhythmia; assay type: in vivo, rat; conditions: for Blocks / Bradycardia / Extrasystoles / Mortality: number of animals with event
[3] = tested on: calcium chloride-induced arrhythmia model in rats; test: Prophylactic antiarrhythmic activity in calcium chloride-induced arrhythmia; assay type: in vivo, rat; conditions: 5 mg/kg iv 15 min before calcium chloride 140 mg/kg; number of animals with event
normal ECG in rats = test: Effect on a normal electrocardiogram in rats; assay type: in vivo, rat; conditions: 5 mg/kg iv; for HR—heart rate / PQ interval / QRS complex / QTc (Bazzett's formula): mean ± SD; for PQ interval / QRS complex / QTc (Bazzett's formula): in ms (unit assumed)
Method: The procedure was performed to exclude the negative effects of the tested compounds on the normal ECG, according to the method described earlier. […] Firstly, animals were anesthetized with thiopental (75 mg/kg ip). […] The influence on PQ, QTc interval, QRS complex, and heart rate was evaluated. The Bazzett’s formula: QTc = QT/√RR was used to calculate QTc. All the studied compounds were administered at a dose of 5 mg/kg.

[4] = tested on: pressor response to methoxamine in rats; test: Influence on blood vasopressor response to methoxamine in rats; assay type: in vivo, rat; conditions: 1 mg/kg iv, methoxamine 150 μg/kg before and 5 min after compound
Method in brief: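 Anaesthetised (thiopental 75 mg/kg ip) normotensive Wistar rats, carotid artery cannulated. Pressor response to methoxamine (150 µg/kg, iv) recorded before and 5 min after test compound, given at its lowest hypotensive dose, after 15-min stabilisation.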

[5] = 0.5 mg/kg iv, 0 min (before administration)
[6] = 1.0 mg/kg iv, 0 min (before administration)
[7] = 0.05 mg/kg iv 15 min before adrenaline 20 μg/kg
[8] = 0.1 mg/kg iv 15 min before adrenaline 20 μg/kg
[9] = 0.25 mg/kg iv 15 min before adrenaline 20 μg/kg
[10] = 0 min (prior to administration)

Structure (SMILES): Cl.NC(=O)c1ccccc1OCCCCN1CCN(c2cccc(Cl)c2)CC1 [JJGW01, 2-{4-[4-(3-chlorophenyl)piperazin-1-ylo]butoxy}benzamide hydrochloride]
- DBP—diastolic blood pressure (normotensive rats; [5]): 95.3 ± 12.6 mmHg
- SBP—systolic blood pressure (normotensive rats; [5]): 130.7 ± 14.9 mmHg
- DBP—diastolic blood pressure (normotensive rats; 0.5 mg/kg iv, 5 min): 88.5 ± 14.3 mmHg
- SBP—systolic blood pressure (normotensive rats; 0.5 mg/kg iv, 5 min): 119.0 ± 13.4 mmHg
- DBP—diastolic blood pressure (normotensive rats; 0.5 mg/kg iv, 10 min): 85.0 ± 13.6 mmHg
- SBP—systolic blood pressure (normotensive rats; 0.5 mg/kg iv, 10 min): 115.7 ± 13.0 mmHg
- DBP—diastolic blood pressure (normotensive rats; 0.5 mg/kg iv, 20 min): 84.8 ± 8.5 mmHg
- SBP—systolic blood pressure (normotensive rats; 0.5 mg/kg iv, 20 min): 114.7 ± 8.8 mmHg
- DBP—diastolic blood pressure (normotensive rats; 0.5 mg/kg iv, 30 min): 84.3 ± 6.9 mmHg
- SBP—systolic blood pressure (normotensive rats; 0.5 mg/kg iv, 30 min): 114.5 ± 10.2 mmHg
- DBP—diastolic blood pressure (normotensive rats; 0.5 mg/kg iv, 40 min): 86.0 ± 10.3 mmHg
- SBP—systolic blood pressure (normotensive rats; 0.5 mg/kg iv, 40 min): 115.2 ± 12.6 mmHg
- DBP—diastolic blood pressure (normotensive rats; 0.5 mg/kg iv, 50 min): 88.3 ± 15.3 mmHg
- SBP—systolic blood pressure (normotensive rats; 0.5 mg/kg iv, 50 min): 116.8 ± 17.3 mmHg
- DBP—diastolic blood pressure (normotensive rats; 0.5 mg/kg iv, 60 min): 86.8 ± 15.5 mmHg
- SBP—systolic blood pressure (normotensive rats; 0.5 mg/kg iv, 60 min): 113.8 ± 16.1 mmHg
- DBP—diastolic blood pressure (normotensive rats; [6]): 87.7 ± 11.2 mmHg
- SBP—systolic blood pressure (normotensive rats; [6]): 112.5 ± 11.6 mmHg
- decrease of the diastolic blood pressure (normotensive rats; 1 mg/kg iv, 40th min after administration): 16%
- decrease of the diastolic blood pressure (normotensive rats; 1 mg/kg iv, 60th min after administration): 17%
- DBP—diastolic blood pressure (normotensive rats; 1.0 mg/kg iv, 5 min): 80.2 ± 10.8 mmHg
- SBP—systolic blood pressure (normotensive rats; 1.0 mg/kg iv, 5 min): 102.5 ± 9.5 ^d mmHg
- DBP—diastolic blood pressure (normotensive rats; 1.0 mg/kg iv, 10 min): 79.0 ± 11.9 mmHg
- SBP—systolic blood pressure (normotensive rats; 1.0 mg/kg iv, 10 min): 100.3 ± 10.4 ^d mmHg
- DBP—diastolic blood pressure (normotensive rats; 1.0 mg/kg iv, 20 min): 77.5 ± 12.1 mmHg
- SBP—systolic blood pressure (normotensive rats; 1.0 mg/kg iv, 20 min): 99.7 ± 11.3 ^c mmHg
- DBP—diastolic blood pressure (normotensive rats; 1.0 mg/kg iv, 30 min): 75.7 ± 10.6 mmHg
- SBP—systolic blood pressure (normotensive rats; 1.0 mg/kg iv, 30 min): 98.2 ± 10.4 ^c mmHg
- DBP—diastolic blood pressure (normotensive rats; 1.0 mg/kg iv, 40 min): 73.8 ± 14.0 ^a mmHg
- SBP—systolic blood pressure (normotensive rats; 1.0 mg/kg iv, 40 min): 95.7 ± 13.3 ^c mmHg
- DBP—diastolic blood pressure (normotensive rats; 1.0 mg/kg iv, 50 min): 72.7 ± 11.6 mmHg
- SBP—systolic blood pressure (normotensive rats; 1.0 mg/kg iv, 50 min): 95.5 ± 11.2 ^d mmHg
- DBP—diastolic blood pressure (normotensive rats; 1.0 mg/kg iv, 60 min): 73.2 ± 11.3 ^a mmHg
- SBP—systolic blood pressure (normotensive rats; 1.0 mg/kg iv, 60 min): 96.5 ± 10.6 ^c mmHg
- decrease of the systolic blood pressure (normotensive rats; 1 mg/kg iv, between the 5th and 60th min after the injection): 9–15%
- Adrenergic Receptors—pKi α2 (α2-adrenergic receptors): 6.13 ± 0.02
- Blocks [1]: 6/6
- Bradycardia [1]: 6/6
- Extrasystoles [1]: 5/6
- Fibrillations [1]: 6/6
- Mortality [1]: 6/6
- Blocks [2, 7]: 6/6
- Bradycardia [2, 7]: 6/6
- Extrasystoles [2, 7]: 6/6
- Mortality [2, 7]: 4/6
- Blocks [2, 8]: 5/6
- Bradycardia [2, 8]: 3/6
- Extrasystoles [2, 8]: 5/6
- Mortality [2, 8]: 0/6
- Blocks [2, 9]: 4/6
- Bradycardia [2, 9]: 2/6
- Extrasystoles [2, 9]: 4/6
- Mortality [2, 9]: 1/6
- ED50 ([2]; prophylactic, iv 15 min before adrenaline 20 μg/kg, confidence limits in brackets (Litchfield and Wilcoxon)): 0.10 (0.03–0.36) mg/kg
- Blocks [3]: 6/6
- Bradycardia [3]: 6/6
- Extrasystoles [3]: 6/6
- Fibrillations [3]: 6/6
- Mortality [3]: 6/6
- effect on the heart rate during the ECG recording (normal ECG in rats): did not affect the heart rate
- HR—heart rate (normal ECG in rats; [10]): 311.8 ± 11.6
- PQ interval (normal ECG in rats; [10]): 42.3 ± 3.4
- QRS complex (normal ECG in rats; [10]): 49.3 ± 7.8
- QTc (Bazzett's formula) (normal ECG in rats; [10]): 196.0 ± 14.2
- HR—heart rate (normal ECG in rats; 5 min): 318.0 ± 28.5
- PQ interval (normal ECG in rats; 5 min): 42.3 ± 2.0
- QRS complex (normal ECG in rats; 5 min): 46.7 ± 5.6
- QTc (Bazzett's formula) (normal ECG in rats; 5 min): 193.7 ± 14.9
- HR—heart rate (normal ECG in rats; 10 min): 324.6 ± 23.1
- PQ interval (normal ECG in rats; 10 min): 41.3 ± 2.4
- QRS complex (normal ECG in rats; 10 min): 48.0 ± 4.2
- QTc (Bazzett's formula) (normal ECG in rats; 10 min): 186.6 ± 9.0
- HR—heart rate (normal ECG in rats; 15 min): 324.0 ± 23.1
- PQ interval (normal ECG in rats; 15 min): 41.0 ± 3.3
- QRS complex (normal ECG in rats; 15 min): 50.3 ± 4.6
- QTc (Bazzett's formula) (normal ECG in rats; 15 min): 190.6 ± 14.5
- attenuation of the methoxamine pressor response [4]: 81%
